According to US20160102317A1, “PLANTS HAVING INCREASED TOLERANCE TO HERBICIDES” (BASF SE, priority 2013, published 2016):
“And” between values parts separate entries of the source, which are not always exact repeats. Equal values may be shown once.

Columns and labels:
[1] = test system: Synechococcus HPPD; test: HPPD activity assay, tolerance index; type: biochemical; conditions: Table 12, normalized to reference SEQ ID NO:53
Experimental: (§1) HPPD produces homogentisic acid and CO2 from 4-hydroxyphenylpyruvate (4-HPP) and 02. The activity assay for HPPD is based on the analysis of homogentisic acid by reversed phase HPLC. The assay mixture can contain 150 mM potassium phosphate buffer pH 7.0, 50 mM L-ascorbic acid, 100 μM Catalase (Sigma-Aldrich), 1 μM FeSO4 and 0.2 units of purified HPPD enzyme in a total volume of 505 μl. 1 unit is defined as the amount of enzyme that is required to produce 1 nmol of HGA per minute at 20° C.
(§2) After a preincubation of 30 min the reaction is started by adding 4-HPP to a final concentration of 0.05 mM. The reaction is allowed to proceed for 45 min at room temperature. The reaction is stopped by the addition of 50 μl of 4.5 M phosphoric acid. The sample is filtered using a […] pore size PVDF filtration device.
(§3) 5 μl of the cleared sample is analyzed on an UPLC HSS T3 column (particle size 1.8 μm, dimensions 2.1×50 mm; Waters) by isocratic elution using 90% 20 mM NaH2PO4 pH 2.2, 10% methanol (v/v).
(§4) HGA is detected electrochemically at 750 mV (mode: DC; polarity: positive) and quantified by integrating peak areas (Empower software; Waters).
(§5) Inhibitors are dissolved in DMSO (dimethylsulfoxide) to a concentration of 0.5 mM. From this stock solution serial five-fold dilutions are prepared in DMSO, which are used in the assay. The respective inhibitor solution accounts for 1% of the assay volume. Thus, final inhibitor concentrations range from 5 μM to 320 μM, respectively. […] IC50 values are calculated using non-linear regression.
(§6) Using methods which are described in the above examples or well known in the art, purified, recombinant wild-type HPPD enzymes are characterized with respect to their kinetic properties and sensitivity towards HPPD inhibiting herbicides. Apparent michaelis constants (Km) and maximal reaction velocities (Vmax) are calculated by non-linear regression with the software GraphPad Prism 5 (GraphPad Software, La Jolla, USA) using a substrate inhibition model. […] Weighted means (by standard error) of Km and IC50 values are calculated from at least three independent experiments. […]

[2] = test system: Rhodococcus HPPD (Seq ID 46); test: HPPD activity assay, tolerance index; type: biochemical; conditions: Table 12; Rhodococcus (Seq ID 46); normalized to reference SEQ ID NO:53
Experimental: as §1, §2, §3, §4, §5, §6

[3] = test system: Rhodococcus HPPD (Seq ID 44); test: HPPD activity assay, tolerance index; type: biochemical; conditions: Table 12; Rhodococcus (Seq ID 44); normalized to reference SEQ ID NO:53
Experimental: as §1, §2, §3, §4, §5, §6

[4] = test system: HPPD Seq ID 69; test: HPPD activity assay, tolerance index; type: biochemical, Zea mays; conditions: Table 12, normalized to reference SEQ ID NO:53
Experimental: as §1, §2, §3, §4
(§7) Inhibitors are dissolved in DMSO (dimethylsulfoxide) to a concentration of 0.5 mM. From this stock solution serial five-fold dilutions are prepared in DMSO, which are used in the assay. […] IC50 values are calculated using non-linear regression. […]

[5] = test system: HPPD Seq ID 67; test: HPPD activity assay, tolerance index; type: biochemical, Zea mays; conditions: Table 12, normalized to reference SEQ ID NO:53
Experimental: as §1, §2, §3, §4, §7

[6] = target: T1, Hordeum HPPD (SEQ ID NO:2), wild-type (Hordeum vulgare, UniProt O48604, A164G/R146V/R147D/R148G); test: HPPD activity assay (HGA by HPLC), wild-type enzyme characterization; type: biochemical
T1 construct: His (N); made in house; host or cells: E. coli BL21 (DE3)
Experimental: as §1, §2, §3, §4
(§8) Inhibitors are dissolved in DMSO (dimethylsulfoxide) to a concentration of 0.5 mM. From this stock solution serial five-fold dilutions are prepared in DMSO, which are used in the assay. The respective inhibitor solution accounts for 1% of the assay volume. […] Activities are normalized by setting the uninhibited enzyme activity to 100%. IC50 values are calculated using non-linear regression.
Using methods which are described in the above examples or well known in the art, purified, recombinant wild-type HPPD enzymes are characterized with respect to their kinetic properties and sensitivity towards HPPD inhibiting herbicides. Apparent michaelis constants (Km) and maximal reaction velocities (Vmax) are calculated by non-linear regression with the software GraphPad Prism 5 (GraphPad Software, La Jolla, USA) using a substrate inhibition model. […] Weighted means (by standard error) of Km and IC50 values are calculated from at least three independent experiments.
(§9) Field performance of the HPPD enzyme, which is used as a herbicide tolerance trait, may depend not only on its lack of sensitivity towards HPPD inhibiting herbicides but also on its activity. To assess the potential performance of a herbicide tolerance trait a tolerance index (TI) is calculated using the following formula: […]
(§10) Easy comparison and ranking of each trait is enabled by normalizing tolerance indexes on Arabidopsis wild-type HPPD.

[7] = target: T2, Hordeum HPPD (SEQ ID: 2) R309K (Hordeum vulgare, UniProt O48604, A164G/R146V/R147D/R148G/R309K); test: HPPD activity assay, in vitro characterization of HPPD mutants; type: biochemical; conditions: Table 16, Hordeum wild-type = 1
T2 construct: His (N); made in house; host or cells: E. coli BL21 (DE3)
Experimental: as §1, §2, §3, §4, §8
(§11) Purified, mutant HPPD enzymes are obtained by the methods described above. Dose response and kinetic measurements are carried out using the described HPPD activity assay. Apparent michaelis constants (Km) and maximal reaction velocities (Vmax) are calculated by non-linear regression with the software GraphPad Prism 5 (Graph Pad Software, La Jolla, USA) using a substrate inhibition model. […] Weighted means (by standard error) of Km and IC50 values are calculated from at least three independent experiments.
as §9, with “of the optimized HPPD enzyme,” for “of the HPPD enzyme,”, “herbicide tolerance trait may depend” for “herbicide tolerance trait, may depend”
as §10

[8] = target: T3, Hordeum HPPD (SEQ ID: 2) L320H, P321A (Hordeum vulgare, UniProt O48604, L320H/P321A); test: as above; type: biochemical; conditions: Table 16, Hordeum wild-type = 1
T3 construct: His (N); made in house; host or cells: E. coli BL21 (DE3)
Experimental: as §1, §2, §3, §4, §8, §11
as §9, with “of the optimized HPPD enzyme,” for “of the HPPD enzyme,”, “herbicide tolerance trait may depend” for “herbicide tolerance trait, may depend”
as §10

[9] = target: T4, Hordeum HPPD (SEQ ID: 2) G407C (Hordeum vulgare, UniProt O48604, A164G/G407C/R146V/R147D/R148G); test: as above; type: biochemical; conditions: Table 16, Hordeum wild-type = 1
T4 construct: His (N); made in house; host or cells: E. coli BL21 (DE3)
Experimental: as §1, §2, §3, §4, §8, §11
as §9, with “of the optimized HPPD enzyme,” for “of the HPPD enzyme,”, “herbicide tolerance trait may depend” for “herbicide tolerance trait, may depend”
as §10

[10] = target: T5, Hordeum HPPD (SEQ ID: 2) F404L (Hordeum vulgare, UniProt O48604, A164G/F404L/R146V/R147D/R148G); test: as above; type: biochemical; conditions: Table 16, Hordeum wild-type = 1
T5 construct: His (N); made in house; host or cells: E. coli BL21 (DE3)
Experimental: as §1, §2, §3, §4, §8, §11
as §9, with “of the optimized HPPD enzyme,” for “of the HPPD enzyme,”, “herbicide tolerance trait may depend” for “herbicide tolerance trait, may depend”
as §10

[11] = target: T6, Hordeum HPPD (SEQ ID: 2) L320Q (Hordeum vulgare, UniProt O48604, A164G/L320Q/R146V/R147D/R148G); test: as above; type: biochemical; conditions: Table 16, Hordeum wild-type = 1
T6 construct: His (N); made in house; host or cells: E. coli BL21 (DE3)
Experimental: as §1, §2, §3, §4, §8, §11
as §9, with “of the optimized HPPD enzyme,” for “of the HPPD enzyme,”, “herbicide tolerance trait may depend” for “herbicide tolerance trait, may depend”
as §10

[12] = test system: Picrophilus HPPD; test: HPPD activity assay, tolerance index; type: biochemical, Picrophilus torridus; conditions: Table 12, normalized to reference SEQ ID NO:53
Experimental: as §1, §2, §3, §4, §7

[13] = Table 16, Hordeum HPPD variant Wild-type

T5 sequence (O48604 whole entry R146V/R147D/R148G/A164G/F404L): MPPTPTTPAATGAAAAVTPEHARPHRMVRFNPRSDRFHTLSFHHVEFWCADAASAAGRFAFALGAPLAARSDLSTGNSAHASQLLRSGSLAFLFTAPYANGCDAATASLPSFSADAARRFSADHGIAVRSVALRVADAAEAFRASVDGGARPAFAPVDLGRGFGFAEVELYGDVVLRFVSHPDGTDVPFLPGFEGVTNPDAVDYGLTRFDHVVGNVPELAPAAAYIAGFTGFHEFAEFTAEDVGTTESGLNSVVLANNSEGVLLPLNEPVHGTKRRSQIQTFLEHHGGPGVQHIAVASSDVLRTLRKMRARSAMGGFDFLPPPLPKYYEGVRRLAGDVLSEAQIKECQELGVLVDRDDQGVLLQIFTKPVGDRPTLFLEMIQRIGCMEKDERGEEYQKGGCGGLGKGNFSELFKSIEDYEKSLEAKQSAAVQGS
T1 sequence (O48604 whole entry R146V/R147D/R148G/A164G): as the sequence (O48604 whole entry R146V/R147D/R148G/A164G/F404L) above, with L404F counted along it
T6 sequence (O48604 whole entry R146V/R147D/R148G/A164G/L320Q): as the sequence (O48604 whole entry R146V/R147D/R148G/A164G/F404L) above, with L320Q, L404F counted along it
T3 sequence (O48604 whole entry R146V/R147D/R148G/A164G/L320H/P321A): as the sequence (O48604 whole entry R146V/R147D/R148G/A164G/F404L) above, with L320H, P321A, L404F counted along it
T2 sequence (O48604 whole entry R146V/R147D/R148G/A164G/R309K): as the sequence (O48604 whole entry R146V/R147D/R148G/A164G/F404L) above, with R309K, L404F counted along it
T4 sequence (O48604 whole entry R146V/R147D/R148G/A164G/G407C): as the sequence (O48604 whole entry R146V/R147D/R148G/A164G/F404L) above, with L404F, G407C counted along it

SMILES | TI Inhibitor 1 (normalized tolerance index) [1] | TI Inhibitor 1 (normalized tolerance index) [2] | TI Inhibitor 1 (normalized tolerance index) [3] | TI Inhibitor 1 (normalized tolerance index) [4] | TI Inhibitor 1 (normalized tolerance index) [5] | Ki [6] [nM] | TI Inhibitor 1 (normalized tolerance index) ([6]; Table 12, Hordeum HPPD, normalized to reference SEQ ID NO:53) | TI Inhibitor 1 (normalized tolerance index) [6, 13] | TI Inhibitor 1 (normalized tolerance index) [7] | TI Inhibitor 1 (normalized tolerance index) [8] | TI Inhibitor 1 (normalized tolerance index) [9] | TI Inhibitor 1 (normalized tolerance index) [10] | TI Inhibitor 1 (normalized tolerance index) [11] | TI Inhibitor 1 (normalized tolerance index) [12] | TI Inhibitor 2 (normalized tolerance index) [6, 13] | TI Inhibitor 2 (normalized tolerance index) [7] | TI Inhibitor 2 (normalized tolerance index) [8] | TI Inhibitor 2 (normalized tolerance index) [10] | TI Inhibitor 2 (normalized tolerance index) [11]
COc1no[nH]/c1=N/C(=O)c1ccc2c(c1Cl)S(=O)(=O)CCC2(C)C [Inhibitor 1, (NE)-8-chloro-N-(4-methoxy-1,2,5-oxadiazol-3-ylidene)-4,4-dimethyl-1,1-dioxo-2,3-dihydrothiochromene-7-carboxamide] | 11.9 | 1.2 | 25.2 | 13.2 | 107.3 | 38 | 0.9 | 1 | 0.4 | 0.5 | 3.3 | 2.1 | 0.1 | 0.4 |  |  |  |  | 
Cc1c(C(=O)Nc2nnnn2C)ccc2c1C(=O)C(C)(C)CS2(=O)=O [Inhibitor 2, 3,3,5-trimethyl-N-(1-methyltetrazol-5-yl)-1,1,4-trioxo-2H-thiochromene-6-carboxamide] |  |  |  |  |  |  |  |  |  |  |  |  |  |  | 1 | 2.8 | 3.6 | 3 and 3.1 | 1.4
